Patent publication US12018059B2, “Human amylin analog polypeptides and methods of use” (Intarcia Therapeutics, Inc., priority 2018, dated 2024)
Starred links: 1 amine or outer side, 2 acyl side, 3 side chain; linkers in the order of their positions; H or OH if unused. Positions of bridges follow the written chain, without caps; N, C: chain ends. Non-standard residues stand in square brackets, D forms with d. Residues, ends and D or L forms follow the SMILES beside them. Groups on a side chain read outwards from the residue. *: point of attachment. X1 = O=C(O)CCCCCCCCCCCCCCCCCCC(=O)NCOCCOCC(=O)*; C20 diacid = O=C(O)CCCCCCCCCCCCCCCCCCC(=O)*; Docosanoyl = CCCCCCCCCCCCCCCCCCCCCC(=O)*; γGlu = O=C(O)[C@H](CCC(=O)[*:2])N[*:1]; Palmitoyl = CCCCCCCCCCCCCCCC(=O)*; AEEA = NCCOCCOCC(=O)O

tested on: not listed separately; test: in vivo; design: species or system Sprague-Dawley rats; conditions: rat, iv, 0.033 mg/kg
How it was run: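 Male Sprague-Dawley rats, non-fasted (n=3), given peptide in saline as 1-h IV or SC infusion at 0.033 mg/kg, or SC bolus at 0.3 mg/kg; jugular blood to 48 h into K2EDTA plus protease inhibitors. Plasma extracted by precipitation or WCX solid-phase extraction, quantified by UPLC-MS/MS against standards in matching rat plasma.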

| SMILES | Vd [L/kg] | clearance [mL/min/kg] | half-life [h] |
| --- | --- | --- | --- |
| CCCCCCCCCCCCCCCC(=O)N[C@@H](CCC(=O)N[C@@H](CCC(=O)N[C@@H](CCC(=O)N[C@@H](CCC(=O)N[C@@H](CCC(=O)NCCCC[C@H](NC(=O)[C@H](CCC(=O)O)NC(=O)[C@H](CC(N)=O)NC(=O)[C@H](C)NC(=O)[C@H](CC(C)C)NC(=O)[C@H](CCCNC(=N)N)NC(=O)[C@H](CCC(N)=O)NC(=O)[C@@H](NC(=O)[C@H](C)NC(=O)[C@@H]1CSSC[C@H](NC(=O)[C@@H](N)CO)C(=O)N[C@@H](CC(N)=O)C(=O)N[C@@H]([C@@H](C)O)C(=O)N[C@@H](CO)C(=O)N[C@@H]([C@@H](C)O)C(=O)N1)[C@@H](C)O)C(=O)N[C@@H](Cc1c[nH]cn1)C(=O)N[C@@H](CCCCN)C(=O)N[C@@H](CO)C(=O)N[C@@H](CO)C(=O)N[C@@H](CC(N)=O)C(=O)N[C@@H](CC(N)=O)C(=O)N[C@@H](Cc1ccccc1)C(=O)NCC(=O)N1CCC[C@H]1C(=O)N[C@H](C(=O)N[C@@H](CC(C)C)C(=O)N1CCC[C@H]1C(=O)N1CCC[C@H]1C(=O)N[C@H](C(=O)N[C@@H](CCCCN)C(=O)N[C@H](C(=O)NCC(=O)N[C@@H](CO)C(=O)N[C@@H](CCC(=O)O)C(=O)N[C@H](C(=O)N[C@@H](Cc1ccc(O)cc1)C(N)=O)[C@@H](C)O)C(C)C)[C@@H](C)O)[C@@H](C)CC)C(=O)O)C(=O)O)C(=O)O)C(=O)O)C(=O)O [Compound A14] (H-SCNTSTCATQRLANEK([γGlu-γGlu-γGlu-γGlu-γGlu-Palmitoyl])HKSSNNFGPILPPTKVGSETY-NH2; disulfide 2-7) | 0.163 | 0.183 | 11.3 |
| CC[C@H](C)[C@H](NC(=O)[C@@H]1CCCN1C(=O)CNC(=O)[C@H](Cc1ccccc1)NC(=O)[C@H](CC(N)=O)NC(=O)[C@H](CC(N)=O)NC(=O)[C@H](CO)NC(=O)[C@H](CO)NC(=O)[C@H](CCCCN)NC(=O)[C@H](Cc1c[nH]cn1)NC(=O)[C@H](CC(C)C)NC(=O)[C@@H](CCCCNC(=O)CC[C@H](NC(=O)CC[C@H](NC(=O)COCCOCCNC(=O)COCCOCCNC(=O)CC[C@H](NC(=O)CCCCCCCCCCCCCCCCCCC(=O)O)C(=O)O)C(=O)O)C(=O)O)NC(=O)[C@H](CC(N)=O)NC(=O)[C@H](C)NC(=O)[C@H](CC(C)C)NC(=O)[C@H](CCCNC(=N)N)NC(=O)[C@H](CCC(N)=O)NC(=O)[C@@H](NC(=O)[C@H](C)NC(=O)[C@@H]1CSSC[C@H](NC(=O)[C@@H](N)CO)C(=O)N[C@@H](CC(N)=O)C(=O)N[C@@H]([C@@H](C)O)C(=O)N[C@@H](CO)C(=O)N[C@@H]([C@@H](C)O)C(=O)N1)[C@@H](C)O)C(=O)N[C@@H](CC(C)C)C(=O)N1CCC[C@H]1C(=O)N1CCC[C@H]1C(=O)N[C@H](C(=O)N[C@@H](CCCCN)C(=O)N[C@H](C(=O)NCC(=O)N[C@@H](CO)C(=O)N[C@@H](CCC(=O)O)C(=O)N[C@H](C(=O)N[C@@H](Cc1ccc(O)cc1)C(N)=O)[C@@H](C)O)C(C)C)[C@@H](C)O [Compound A101] (H-SCNTSTCATQRLAN[dK]([γGlu-γGlu-AEEA-AEEA-γGlu-C20 diacid])LHKSSNNFGPILPPTKVGSETY-NH2; disulfide 2-7; N-terminus assumed) | 0.149 | 0.0675 | 28.4 |
| CC[C@H](C)[C@H](NC(=O)[C@@H]1CCCN1C(=O)CNC(=O)[C@H](Cc1ccccc1)NC(=O)[C@H](CC(N)=O)NC(=O)[C@H](CC(N)=O)NC(=O)[C@H](CO)NC(=O)[C@H](CO)NC(=O)[C@H](CCCCN)NC(=O)[C@H](Cc1c[nH]cn1)NC(=O)[C@H](CC(C)C)NC(=O)[C@@H](CCCCNC(=O)CC[C@H](NC(=O)CC[C@H](NC(=O)COCCOCNC(=O)CCCCCCCCCCCCCCCCCCC(=O)O)C(=O)O)C(=O)O)NC(=O)[C@H](CC(N)=O)NC(=O)[C@H](C)NC(=O)[C@H](CC(C)C)NC(=O)[C@H](CCCNC(=N)N)NC(=O)[C@H](CCC(N)=O)NC(=O)[C@@H](NC(=O)[C@H](C)NC(=O)[C@@H]1CSSC[C@H](NC(=O)[C@@H](N)CO)C(=O)N[C@@H](CC(N)=O)C(=O)N[C@@H]([C@@H](C)O)C(=O)N[C@@H](CO)C(=O)N[C@@H]([C@@H](C)O)C(=O)N1)[C@@H](C)O)C(=O)N[C@@H](CC(C)C)C(=O)N1CCC[C@H]1C(=O)N1CCC[C@H]1C(=O)N[C@H](C(=O)N[C@@H](CCCCN)C(=O)N[C@H](C(=O)NCC(=O)N[C@@H](CO)C(=O)N[C@@H](CCC(=O)O)C(=O)N[C@H](C(=O)N[C@@H](Cc1ccc(O)cc1)C(N)=O)[C@@H](C)O)C(C)C)[C@@H](C)O [Compound A96] (H-SCNTSTCATQRLAN[dK]([γGlu-γGlu-X1])LHKSSNNFGPILPPTKVGSETY-NH2; disulfide 2-7; N-terminus assumed) | 0.153 | 0.0996 | 20.1 |
| CCCCCCCCCCCCCCCCCCCCCC(=O)N[C@@H](CCC(=O)N[C@@H](CCC(=O)NCCCC[C@@H](NC(=O)[C@H](CCC(=O)O)NC(=O)[C@H](CC(N)=O)NC(=O)[C@H](C)NC(=O)[C@H](CC(C)C)NC(=O)[C@H](CCCNC(=N)N)NC(=O)[C@H](CCC(N)=O)NC(=O)[C@@H](NC(=O)[C@H](C)NC(=O)[C@@H]1CSSC[C@H](NC(=O)[C@@H](N)CO)C(=O)N[C@@H](CC(N)=O)C(=O)N[C@@H]([C@@H](C)O)C(=O)N[C@@H](CO)C(=O)N[C@@H]([C@@H](C)O)C(=O)N1)[C@@H](C)O)C(=O)N[C@@H](Cc1c[nH]cn1)C(=O)N[C@@H](CCCCN)C(=O)N[C@@H](CO)C(=O)N[C@@H](CO)C(=O)N[C@@H](CC(N)=O)C(=O)N[C@@H](CC(N)=O)C(=O)N[C@@H](Cc1ccccc1)C(=O)NCC(=O)N1CCC[C@H]1C(=O)N[C@H](C(=O)N[C@@H](CC(C)C)C(=O)N1CCC[C@H]1C(=O)N1CCC[C@H]1C(=O)N[C@H](C(=O)N[C@@H](CCCCN)C(=O)N[C@H](C(=O)NCC(=O)N[C@@H](CO)C(=O)N[C@@H](CCC(=O)O)C(=O)N[C@H](C(=O)N[C@@H](Cc1ccc(O)cc1)C(N)=O)[C@@H](C)O)C(C)C)[C@@H](C)O)[C@@H](C)CC)C(=O)O)C(=O)O [Compound A124] (H-SCNTSTCATQRLANE[dK]([γGlu-γGlu-Docosanoyl])HKSSNNFGPILPPTKVGSETY-NH2; disulfide 2-7) | 0.273 | 1.72 | 2.14 |

biological target: T1, human calcitonin receptor (hCTR) (Homo sapiens, UniProt P30988); test: cAMP accumulation functional assay in HEK293-CNG cells expressing hCTR; type: cell-based; conditions: presence versus absence of HSA (FIG. 2D)
T1 sequence (P30988 25-474): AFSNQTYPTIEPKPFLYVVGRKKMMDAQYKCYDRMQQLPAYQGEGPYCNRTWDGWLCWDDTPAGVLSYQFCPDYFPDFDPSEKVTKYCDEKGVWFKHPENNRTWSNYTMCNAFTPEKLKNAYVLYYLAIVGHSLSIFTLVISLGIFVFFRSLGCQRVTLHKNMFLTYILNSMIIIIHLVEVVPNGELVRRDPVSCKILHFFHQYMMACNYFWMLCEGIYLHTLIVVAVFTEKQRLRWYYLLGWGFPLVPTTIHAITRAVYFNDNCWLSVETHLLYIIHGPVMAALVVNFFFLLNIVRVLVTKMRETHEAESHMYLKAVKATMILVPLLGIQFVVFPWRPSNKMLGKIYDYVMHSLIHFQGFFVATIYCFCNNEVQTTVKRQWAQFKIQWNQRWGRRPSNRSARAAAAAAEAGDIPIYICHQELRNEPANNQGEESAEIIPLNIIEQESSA
Method: In the presence of the non-specific cAMP/cGMP phosphodiesterase inhibitor 3-isobutyl-1-methylxanthine (IBMX), accumulating cAMP can be measured in vitro using common detection methods. Thus, it is possible to estimate an in vitro potency (pEC50) for peptides activating each of these receptors using fit dose-response curves for cAMP accumulation.
Cells were carried in growth media for no more than 10 passages prior to testing.
Peptides were serially diluted in the same buffer as above for each given assay condition. Two assay control solutions consisting of 50 mcM forskolin (cAMP system maximum) or assay buffer only (cAMP system minimum) were also prepared in the appropriate stimulation buffers. Five microliters of each peptide-concentration, or assay control was added to triplicate wells and incubated for thirty minutes at room temperature. During this incubation step a 4× europium labelled cAMP tracer solution and a 4× Ulight®-anti-cAMP solution (consisting of an anti-cAMP monoclonal antibody labelled with Ulight™ dye) was prepared according to the manufacturer's protocol (PerkinElmer LANCE Ultra cAMP kit). Following this incubation, 5 mcL europium labelled cAMP and 5 mcL Ulight anti-cAMP antibody was added to wells. The plate was covered with an adhesive cover to prevent evaporation and incubated for 60 minutes at room temperature in the dark. Plates were read on an Envision fluorescent plate reader (PerkinElmer).
Test values were first normalized to the forskolin induced cAMP system maximum and system minimum averaged values in Excel using the formula: (test value−system minavg)/(system maxavg−system minavg)*100. Normalized test values represent a baseline corrected percentage of the system maximum cAMP response induced by forskolin. Normalized data was analyzed from triplicate tests and used to estimate the EC50 for each peptide on each receptor. Data was fit in GraphPad Prism software (v7.04) using a 4-parameter logistic curve model: Y=Bottom+(Top−Bottom)/(1+10^((Log EC50−X))). The Hill slope was constrained to 1.0. EC50 values were converted to pEC50 values using the formula: pEC50=−Log (EC50).

| SMILES | effect of HSA on potency at hCTR |
| --- | --- |
| CC[C@H](C)[C@H](NC(=O)[C@H](C)NC(=O)[C@@H](NC(=O)[C@H](CCC(N)=O)NC(=O)[C@@H]1CCCN1C(=O)[C@H](Cc1ccccc1)NC(=O)[C@@H](NC(=O)[C@H](Cc1c[nH]cn1)NC(=O)[C@H](Cc1ccccc1)NC(=O)[C@H](CCCCN)NC(=O)[C@H](CC(N)=O)NC(=O)[C@H](Cc1ccccc1)NC(=O)[C@H](CC(=O)O)NC(=O)[C@H](CCC(N)=O)NC(=O)[C@@H](NC(=O)[C@H](Cc1ccc(O)cc1)NC(=O)[C@@H](NC(=O)CNC(=O)[C@H](CC(C)C)NC(=O)[C@H](CCSC)NC(=O)[C@@H]1CSSC[C@H](N)C(=O)NCC(=O)N[C@@H](CC(N)=O)C(=O)N[C@@H](CC(C)C)C(=O)N[C@@H](CO)C(=O)N[C@@H]([C@@H](C)O)C(=O)N1)[C@@H](C)O)[C@@H](C)O)[C@@H](C)O)[C@@H](C)O)C(=O)NCC(=O)N[C@H](C(=O)NCC(=O)N[C@@H](C)C(=O)N1CCC[C@H]1C(N)=O)C(C)C [hCalcitonin, human calcitonin, reference compound] | unaffected by the presence of HSA |
